Measured values reported in patent publication US8580805B2, “Pyrimidine carboxamide derivatives” (priority 2010, dated 2013).

What was measured:
[1] = system: adjuvant-induced arthritis in male Lewis rats; test: adjuvant-induced arthritis test in rats; format: in vivo, rat; settings: change day 28 minus day 21; 30 mg/kg by intubation each day for seven days; vehicle result in parenthesis
Description: As mentioned earlier, the compounds of formula (1) and pharmaceutically acceptable salts of compounds of formula (1) are useful in the treatment or prevention of inflammations and diseases where inflammation is the innate cause. For example, they can be used as anti-inflammatory agents in the treatment of inflammatory joint diseases, such as arthritis. To substantiate this assertion, representative compounds of formula (1) were tested for their inflammation-inhibiting properties in the adjuvant-induced arthritis test in rats as described in Int J Immunopharma, […], 12, 709-712.
A quantity of 0.1 ml of a 0.5% (weight/volume) suspension of heat-killed and dried mycobacterium butyricum in heavy mineral oil, containing 0.2% digitonin, is injected into the base of the tail of male Lewis rats (120-140 g). The animals are housed individually and receive feed and water ad libitum. The thus-induced arthritis is allowed to develop without treatment during 21 days. On day 21 the body weight of each animal is determined. At the same time, the volumes of the two hind paws of each animal are measured by immersing the paws in an aqueous plethysmograph up to the height of the lateral malleolus. Thereupon, the animals are divided into groups, each group comprising six animals of approximately the same average volumes of the hind paws. One group is administered suspending vehicle. The other groups are administered the micronized test compound suspended in an aqueous suspending vehicle [0.9% NaCl (w/v) containing 0.5% carboxymethyl cellulose (w/v), 0.86% benzyl alcohol (v/v) and 0.39% Tween 80 (v/v)]. The test compound in aqueous suspending vehicle (or vehicle alone) is administered to the animals by intubation each day over a period of seven days. The effect of the test compounds is monitored daily by measurement of the hind paw volumes and body weights. At the end of the treatment period (day 28), body weights and volumes of the hind paws are again determined. The changes over the treatment period are calculated. The change in paw volume or body weight equals the paw volume or body weight on day 28 minus paw volume or body weight on day 21.
The results determined for representative compounds of formula (1) in the test described hereinbefore are set forth in the following Table I. Therein, the results for vehicle is in parenthesis following the results for each tested compound at a dose level of 30 mg/kg in each test.

ovine COX-1 = target: T1, ovine COX-1 (Ovis aries, UniProt P05979); test: COX Activity Assay (Cayman), colorimetric, COX-1; format: biochemical; settings: at a level of 300 μM
T1 construct: purchased Cayman Chemicals
T1 sequence (P05979 25-600): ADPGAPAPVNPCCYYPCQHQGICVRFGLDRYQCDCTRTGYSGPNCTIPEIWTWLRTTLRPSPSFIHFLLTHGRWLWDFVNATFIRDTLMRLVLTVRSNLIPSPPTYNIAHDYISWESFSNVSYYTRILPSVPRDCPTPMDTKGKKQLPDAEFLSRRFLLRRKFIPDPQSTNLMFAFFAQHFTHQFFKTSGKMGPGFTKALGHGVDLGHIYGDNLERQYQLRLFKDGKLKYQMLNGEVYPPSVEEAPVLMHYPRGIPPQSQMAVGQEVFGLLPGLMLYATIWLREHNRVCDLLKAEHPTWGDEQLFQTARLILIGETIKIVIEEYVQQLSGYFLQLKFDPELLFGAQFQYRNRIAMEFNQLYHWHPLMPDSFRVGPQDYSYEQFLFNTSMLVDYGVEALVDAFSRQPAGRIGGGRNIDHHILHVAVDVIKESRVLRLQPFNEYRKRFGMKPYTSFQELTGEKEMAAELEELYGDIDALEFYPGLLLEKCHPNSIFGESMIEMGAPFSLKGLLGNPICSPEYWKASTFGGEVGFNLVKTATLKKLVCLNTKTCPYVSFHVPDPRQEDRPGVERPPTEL
Description: (§1) A representative compounds of formula (1a), was also tested for the effects on the activity of purified COX1, COX2, and LOX5 enzymes. In sharp contrast to the potent activity in the adjuvant-induced arthritis test in rats, the activity against the isolated arachidonic acid metabolizing enzymes was low.
(§2) COX activity was measured using an assay kit obtained from Cayman Chemicals in accord with the instruction manual of the manufacturer “COX Activity Assay, Catalog No. 760151, Colorimetric Assay for the Determination of COX Activity.” The enzyme activity was determined by the peroxidase activity of cyclooxygenases on arachidonic acid and monitored colorimetrically at 590 nm by the appearance of oxidized N,N,N′,N′-tetramethyl-p-phenylenediamine. Both ovine COX-1 and human recombinant COX-2 were obtained from Cayman Chemicals.

[2] = system: purified potato 5-lipoxygenase; test: LOX Inhibitor Screening Assay Kit (Cayman), colorimetric; format: biochemical; settings: arachidonic acid as substrate
Description: A representative compounds of formula (1a), was also tested for the effects on the activity of purified COX1, COX2, and LOX5 enzymes. In sharp contrast to the potent activity in the adjuvant-induced arthritis test in rats, the activity against the isolated arachidonic acid metabolizing enzymes was low. LOX5 activity was also measured colorimetrically by the hydroperoxides generated from the incubation of purified potato 5-lipoxygenase (Cayman Chemical Item Number 60401) in the LOX Inhibitor Screening Assay Kit (Cayman Chemical Item Number 760700) using arachidonic acid as substrate and following the protocol provided by Cayman Chemical. The test substance A inhibited the enzyme at 300, 100, 30 μM at 89, 69, and 46%, respectively.

human recombinant COX-2 = target: T2, human recombinant COX-2 (Homo sapiens, UniProt P35354); test: COX Activity Assay (Cayman), colorimetric, COX-2; format: biochemical; settings: read-out: IC50 for COX2
T2 construct: purchased Cayman Chemicals
T2 sequence (P35354 18-604): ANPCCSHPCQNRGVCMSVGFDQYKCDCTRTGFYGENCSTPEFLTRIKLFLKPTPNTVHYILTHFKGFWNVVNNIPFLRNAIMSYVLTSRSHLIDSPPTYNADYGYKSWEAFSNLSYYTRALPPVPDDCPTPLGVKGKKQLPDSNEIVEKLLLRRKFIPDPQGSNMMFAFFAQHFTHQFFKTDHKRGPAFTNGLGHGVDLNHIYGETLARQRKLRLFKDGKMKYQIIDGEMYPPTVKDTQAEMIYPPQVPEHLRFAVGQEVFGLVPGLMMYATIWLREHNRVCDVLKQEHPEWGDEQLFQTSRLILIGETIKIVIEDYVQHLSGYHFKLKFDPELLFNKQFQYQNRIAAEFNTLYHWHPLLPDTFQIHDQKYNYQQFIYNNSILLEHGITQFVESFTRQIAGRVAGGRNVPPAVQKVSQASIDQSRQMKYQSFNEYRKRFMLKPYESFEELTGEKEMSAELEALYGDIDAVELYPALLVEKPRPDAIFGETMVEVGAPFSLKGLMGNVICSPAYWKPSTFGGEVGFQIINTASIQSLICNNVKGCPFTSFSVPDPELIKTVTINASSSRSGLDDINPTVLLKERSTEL
Description: as §1, §2

Row | SMILES | Body weight change (g) [1] | Left paw volume (mL) [1] | Right paw volume (mL) [1] | effect on COX1 (ovine COX-1) | LOX5 inhibition ([2]; 30 μM) [%] | LOX5 inhibition ([2]; 100 μM) [%] | LOX5 inhibition ([2]; 300 μM) [%] | IC50 (human recombinant COX-2) [µM]
1 | CNC(=O)c1cnc(OC)nc1-c1cc(C(C)(C)C)c(O)c(C(C)(C)C)c1 [C, 4-(3,5-di-tert-butyl-4-hydroxy-phenyl)-2-methoxy-pyrimidine-5-carboxylic acid methylamide] | 28 ± 2 (13) g | −0.65 ± 0.02 (0.09) mL | −0.61 ± 0.01 (0.08) mL |  |  |  |  | 
2 | CNC(=O)c1cnc(C)nc1-c1cc(C(C)(C)C)c(O)c(C(C)(C)C)c1 [Compound A, 4-(3,5-di-tert-butyl-4-hydroxy-phenyl)-2-methyl-pyrimidine-5-carboxylic acid methylamide] | 25 ± 3 (13) g | −0.88 ± 0.12 (0.09) mL | −0.99 ± 0.15 (0.08) mL | no effect | 46 | 69 | 89 | 60
